Here are results for one molecule from patent publication US7786152B2, “Compound” (priority 2002, dated 2010).

The target in assay [1] is T1, Human 11βHSD1 (Homo sapiens, UniProt P28845).
T1 construct: the enzyme source, native hepatic enzyme compared to recombinant enzyme; tissue XenoTech H0610/Lot 0210078; host or cells: human hepatic microsomes
The assay can be described thus: 11β HSD1 cortisol radioimmunoassay (RIA) with human hepatic microsomes. In kind it is biochemical. The settings on record: RIA format; Lineweaver-Burke; Buffer 3, 10 μg/well microsomal protein, 30 min; read-out: apparent Km. The procedure: Biological Assay Development Using Human 11β-Hydroxysteroid Dehydrogenase Type 1. Standard Operating Procedure for the 11β-Hydroxysteroid Dehydrogenase Type 1 Cortisol Radioimmunoassay. 11β HSD1 Cortisol RIA
Enzyme assay buffer: 30 mM Tris-HCL, pH 7.2 containing 1 mM EDTA
Antibody binding buffer: 50 mM Tris-HCL, pH 8, containing 0.1 M NaCl and 0.1% gelatin
Dilute into assay buffer 1 in 25. Also dilute neat DMSO 1 in 25 into assay buffer for controls.
Dilute this 1 in 50 into assay buffer.
Prepare NADPH as a 1.8 mg/ml solution in assay buffer.
Mix these 3 solutions 1:1:1 to make a solution of sufficient volume for 25 μl additions to each sample. Add 0.5 μCi tritiated cortisone per 25 μl and mix the solution well.
Microsome preparation: Dilute stock 20 mg/ml solution 1 in 100 with assay buffer.
Dextran coated charcoal preparation: Make a 20 mg/ml solution in antibody binding buffer and chill on ice.
Enzyme assay: To a u-bottom polypropylene 96 well plate add:
25 μl compound dilution or diluted DMSO to controls, NSB's and blanks
10 μl 1 mM GA in DMSO (enzyme stop solution) to blanks
25 μl substrate mixture to all samples
50 μl diluted microsomes to all samples
Incubate plate for 30 min at 37° C. shaking
Add 10 μl enzyme stop solution to all wells except the blanks
Add 100 μl antibody solution to all wells except the NSB's, add antibody binding buffer to these wells
Incubate at 37° C. for 1 h
Chill plate on ice for 15 min
Add 50 μl/well charcoal solution and mix with an 8-channel pipette (4-5 aspirations)
Centrifuge at 4° C., 2000×g for 15 min
Transfer 100 μl supernatant into an Optiplate, also add 25 μl substrate mixture to 2 empty wells to indicate counting efficiency
Add 200 μl Microscint-40 to all wells and count on a Topcount
The 11β HSD1 enzyme assay was carried out following the standard operating procedure described above in u-bottom polypropylene 96 well plates or 1.5 ml Eppendorf tubes as indicated for each experiment. Subsequent to stopping the enzyme reaction, 100 μl antibody prepared in buffer 3 unless otherwise indicated was added to test samples and 100 μl buffer 3 was added to the NSB samples. The samples were incubated for 1 hour at 37° C. and the chilled on ice for 15 mins. Dextran coated charcoal (50 μl/sample) prepared to the indicated concentration in buffer 3 was added and the samples were mixed (vortex for tubes and aspiration 5 times with an 8-channel pipette for 96 well plates) and chilled for a further 10 min. The samples were centrifuged at 2000×g for 15 min at 4° C. to pellet the charcoal. Aliquots of the supernatant (100 μl) were transferred to an Optiplate and counted on the Topcount in 150-200 μl Microscint 40. In some experiments, aliquots of supernatant were transferred to scintillation vials and counted on the Tricarb LSC in 5 ml Ultima Gold scintillant.
Substrate saturation was examined. The enzyme assay was carried out exactly described in the methods section, in Buffer 3 with 10 μg/well microsomal protein and with [cold cortisone] as indicated. [3H]-cortisone was 0.5 μCi/sample throughout. The reaction was stopped after 30 min by the addition of 10 μl stop solution. The RIA was carried out exactly as indicated in the methods section.
It is reported that DMSO can both increase and reduce microsomal enzyme activity, depending on the concentration, presumably due to effects on the microsomal membranes.

Assay [2] concerns the target T2, human hepatic microsomal 11β-HSD1 (Homo sapiens, UniProt P28845).
T2 construct: the enzyme source, native hepatic enzyme compared to recombinant enzyme; tissue XenoTech H0610/Lot 0210078; host or cells: human hepatic microsomes
Kind of assay: 11β HSD1 TLC format assay with human hepatic microsomes. The settings on record: Lineweaver-Burke, 10 μg microsomal protein, 30 minutes at 37° C., read-out: apparent Km for cortisone. The format is biochemical.
Description: 11β-HSD1 activity in rat and human hepatic microsomes was evaluated, to determine the minimum microsomal protein concentrations required for measurement of enzyme activity. […] The assay was performed in Buffer 2 and the cortisone concentration used was 2 μM containing 0.5 μCi [^3H]-cortisone per incubation. Microsomes were tested at concentrations ranging from 50 μg to 400 μg protein per incubation in a final incubation volume of 100 μl in glass tubes. Samples were incubated for 1 h in a shaking water bath at 37° C. and the assay was stopped by addition of 1 ml ethyl acetate. To correct for recovery, 50 μl [^14C]-cortisol was added to the samples followed by 200 μl 0.05% CaCl2. The samples were vortex mixed and centrifuged as described above. The upper organic phase was removed and dried down, and the residue dissolved in 100 μl methanol and 50 μl aliquots were spotted onto TLC plates, which were run as described above. Samples were counted on a TriCarb liquid scintillation counter using a dual label programme. Recovery efficiency was determined from the DPM obtained in 50 μl [^14C]-cortisol solution, which was counted with the samples.
Lower human microsome protein concentrations were evaluated; 3.7 μg to 100 μg per sample. The time course of activity was also determined, from 0 to 60 minutes at 37° C. The extraction conditions were as described above. […]

T2 sequence (P28845 whole entry): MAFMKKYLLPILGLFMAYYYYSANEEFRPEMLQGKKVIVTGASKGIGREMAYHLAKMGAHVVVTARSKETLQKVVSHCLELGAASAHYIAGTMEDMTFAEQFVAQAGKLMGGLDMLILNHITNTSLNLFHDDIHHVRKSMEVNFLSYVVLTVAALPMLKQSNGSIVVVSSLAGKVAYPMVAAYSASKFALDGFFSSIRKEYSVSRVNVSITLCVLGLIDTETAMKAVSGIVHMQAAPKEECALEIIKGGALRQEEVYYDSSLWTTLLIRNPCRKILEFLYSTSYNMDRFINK
T1 sequence (P28845 whole entry): as above

In the case of `C[C@]12CCC(=O)C=C1CC[C@@H]1[C@@H]2C(=O)C[C@@]2(C)[C@H]1CC[C@]2(O)C(=O)CO` [cortisone, reference compound], the Km in assay [1] came out at 700 nM; in assay [2], 660 nM.
